Laboratory results published in patent US7943795B2, “Vitamin D receptor modulators” (Eli Lilly and Company, priority 2004, dated 2011).

Assays:
Type in all cases: cell-based
[1] = system: rat osteocalcin promoter; test: OCN (osteocalcin) promoter assay; settings: RG-15 (ROS 17/2.8) cells, 48 hr treatment, luciferase reporter
Protocol: 4. The OCN Promoter test is described in the “Assay” section of the Description, infra.
The OCN (Osteocalcin) Promoter Assay
The OCN Promoter Assay is an indicator and marker for osteoporosis. Desired assay results are EC50 less than or equal to 325 nM. Preferred assay results are less than 50 nM.
The activation of osteocalcin by VDR ligands is evaluated in a rat osteoblast-like cell line RG-15 (ROS 17/2.8) stably expressing rat osteocalcin promoter fused with luciferase reporter gene. The stable cell lines are established as reported before (Activation of Osteocalcin Transcription involves interaction of protein kinase A- and Protein kinase C-dependent pathways. Boguslawski, G., Hale, L. V., Yu, X.-P., Miles, R. R., Onyia, J. E., Santerre R. F., Chandrasekhar, S. J Biol. Chem. 275, 999-1006, 2000). Confluent RG-15 cells maintained in DMEM/F-12 medium (3:1) containing 5% FBS, 300 μg/ml G418 and at 37° C. under 5% CO2/95% air atmosphere are trypsinized (0.25% trypsin) and plated into white opaque 96-well cell culture plates (25000 cells/well). After 24 hr, cells (in DMEM/F-12 medium+2% FBS) are treated with various concentrations of compounds, dissolved in DMSO. The final DMSO concentration remains at 0.01% (v/v). After 48 hr treatment, the medium is removed, cells are lysed with 50 μl of lysis buffer (From Luciferase reporter assay system, Roche Diagnostics, Indianapolis, Ind.) and then assayed for luciferase activity using the Luciferase Reporter Gene Assay kit from Boehringer Mannheim as per manufacturer's specifications.

[2] = molecular target: T1, VDR (Homo sapiens, UniProt P11473); test: VDR CTF (Caco-2 cells) co-transfection assay; settings: pGal4-VDR-LBD, luciferase reporter
T1 construct: the receptor expression vector pGal4-VDR-LBD (10 ng); expressed in transfected cells; host or cells: Caco-2 cells
T1 sequence (P11473 127-423 limits assumed): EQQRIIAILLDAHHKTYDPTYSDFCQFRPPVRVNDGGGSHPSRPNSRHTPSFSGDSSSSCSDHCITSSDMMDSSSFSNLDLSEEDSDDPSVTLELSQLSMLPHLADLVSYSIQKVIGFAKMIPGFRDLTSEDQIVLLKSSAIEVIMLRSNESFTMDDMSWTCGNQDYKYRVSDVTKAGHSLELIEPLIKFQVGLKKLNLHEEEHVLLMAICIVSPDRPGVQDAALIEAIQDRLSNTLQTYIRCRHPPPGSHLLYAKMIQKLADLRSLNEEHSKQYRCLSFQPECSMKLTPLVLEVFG
Protocol: 3. The VDR CTF (Caco-2 cells) test is described in the “Assay” section of the Description, infra.
The Caco-2 cell assay is an indicator for the undesirable condition of hypercalcemia. This co-transfection assay is a surrogate assay for in vivo calcemic activity of VDR ligands. It is desirable to have high EC50 values for a test compound in this assay. The higher the EC50 values for a compound the less calcemic it will be in vivo. Desired assay results are EC50 greater than or equal to 300 nM. Preferred assay results are greater than 1000 nM.
Caco-2 cells, grown in phenol red free, DMEM (Invitrogen, Carlsbad, Calif.) containing 10% charcoal-stripped FBS (Hyclone, Logan, Utah), are transfected with Fugene 6 reagent (Roche Diagnostics, Indianapolis, Ind.). Cells (5000/well) are plated 18 h before transfection in a 96 well plate. The cells are transfected with Gal4-responsive reporter pFRLuc (150 ng, Stratagene, La Jolla Calif.) and the receptor expression vector pGal4-VDR-LBD (10 ng), along with Fugene 6 reagent (0.2 μl/well). The DNA-Fugene complex is formed by incubating the mixture for 30 m at room temperature. The cells are transfected in triplicate for 5 h, and treated with various concentrations of VDR ligands (from 0.01 nM to […] concentration range) 18 h post-transfection. The luciferase activity is quantified using Steady-Glo reagent kit (Promega, Madison, Wis.) as per manufacturer's specifications.

[3] = system: KERtr cells (Human skin keratinocyte); test: Keratinocyte proliferation assay; settings: 72 hr, BrdU incorporation, read-out: Keranocyte Proliferation IC50
Protocol: 6. The keratinocyte proliferation assay is described in the “Assay” section of the Description, infra.
The Keratinocyte Proliferation Assay
This Assay is indicative for the treatment of psoriasis. An acceptable test result is IC50 value of less than or equal to 300 nM. Preferred assay results are IC50 values of less than 100 nM.
KERtr cells (Human skin keratinocyte are transformed with a retrovirus vector, obtained from ATCC, then are plated in 96-well flat-bottomed plates (3000 cells/well) in 100 μl keratinocyte serum free medium supplemented with bovine pituitary extract in the absence of EGF (Life Technologies, Rockville, Md.) and are incubated at 37° C. for two days. The cells are treated with various concentrations of VDR ligands (ten-fold serial dilution from 10,000 nM to 0.1 nM in triplicate), dissolved in 100 μl keratinocyte serum free medium supplemented with bovine pituitary extract in the absence of EGF and are incubated at 37° C. for 72 hr. BrdU (5-bromo-2′-deoxyuridine) incorporation is analyzed as a measure of DNA replication (Cell proliferation ELISA kit, Roche Diagnostics, Indianapolis, Ind.) and absorbance is measured at […]. Potency values (IC50) values were determined as the concentration (nM) of compound that elicited a half-maximal response.

Q: Which results are given for `CCC(CC)(c1ccc(OCC(O)C(C)(C)C)c(C)c1)c1ccc2cc(C(=O)O)ccc2c1` (single isomer, unassigned) [Ex. 2A, 6-{1-Ethyl-1-[4-(2-hydroxy-3,3-dimethyl-butoxy)-3-methyl-phenyl]-propyl}-naphthalene-2-carboxylic acid]?
A: EC50 [1]: 6 nM; EC50 [2]: 466 nM

Q: Which results are given for `CCC(CC)(c1ccc(OCC(=O)C(C)(C)C)c(C)c1)c1ccc2cc(C(=O)O)ccc2c1` [Ex. 1, 6-{1-[4-(3,3-dimethyl-2-oxobutoxy)-3-methylphenyl]-1-ethylpropyl}naphthalene-2-carboxylic acid]?
A: IC50 [3]: 653 nM; EC50 ([1]; Rattus norvegicus, 48 h): 2.6 nM; EC50 [2]: 194 nM

Q: For `CCC(CC)(c1ccc(OCC(=O)C(C)(C)C)c(C)c1)c1ccc2cc(C(=O)NCC(=O)O)ccc2c1` [Ex. 3, [(6-{1-[4-(3,3-Dimethyl-2-oxo-butoxy)-3-methylphenyl]-1-ethylpropyl}naphthalene-2-carbonyl)amino]acetic acid], which IC50 [3] is on record?
A: 2 nM

Q: What about the EC50 ([1]; Rattus norvegicus, 48 h) of the same molecule?
A: 0.1 nM

Q: And the EC50 [2]?
A: 35 nM

Q: What does the source list for `CCC(CC)(c1ccc(OCC(=O)C(C)(C)C)c(C)c1)c1ccc2cc(C(=O)N(C)C)ccc2c1` [Ex. 4, 6-{1-[4-(3,3-dimethyl-2-oxobutoxy)-3-methylphenyl]-1-ethylpropyl}naphthalene-2-carboxylic acid dimethylamide]?
A: IC50 [3]: > 1000 nM; EC50 ([1]; Rattus norvegicus, 48 h): 41 nM; EC50 [2]: 550 nM

Q: Which IC50 [3] does the source give for `CCC(CC)(c1ccc(OCC(=O)C(C)(C)C)c(C)c1)c1ccc2cc(C(=O)N(C)CC(=O)O)ccc2c1` [Ex. 5, [(6-{1-[4-(3,3-Dimethyl-2-oxobutoxy)-3-methylphenyl]-1-ethylpropyl}naphthalene-2-carbonyl)methylamino]acetic acid] here?
A: 24 nM

Q: What about the EC50 ([1]; Rattus norvegicus, 48 h) of the same molecule?
A: 0.2 nM

Q: And the EC50 [2]?
A: 162 nM
